Article PMC9299109 (Iubmb Life, 2021)

Legend:
[1] = target: T1, BoFADS (FAD synthase from Brucella ovis) (Brucella ovis, UniProt A0A0H3AW96)
[2] = target: T1, BoFADS (FAD synthase from Brucella ovis); test: biochemical

T1 sequence (A0A0H3AW96 1-329): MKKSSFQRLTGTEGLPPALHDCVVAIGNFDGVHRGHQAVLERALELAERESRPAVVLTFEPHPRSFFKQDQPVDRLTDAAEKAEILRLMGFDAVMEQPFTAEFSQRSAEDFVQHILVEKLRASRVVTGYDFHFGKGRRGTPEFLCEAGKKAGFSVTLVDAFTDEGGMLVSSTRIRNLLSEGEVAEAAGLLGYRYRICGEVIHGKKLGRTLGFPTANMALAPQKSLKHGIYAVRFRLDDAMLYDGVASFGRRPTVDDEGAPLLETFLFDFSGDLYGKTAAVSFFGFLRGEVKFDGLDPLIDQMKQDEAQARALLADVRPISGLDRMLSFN

Compound | visible difference spectroscopy, FMN titration with ADP [1] | Kd [2] [nM]
Nc1ncnc2c1ncn2[C@@H]1O[C@H](COP(=O)(O)OP(=O)(O)O)[C@@H](O)[C@H]1O [ADP] | titrated with oxidized FMN in the presence of ADP but not in its absence | –
Cc1cc2nc3c(=O)[nH]c(=O)nc-3n(C[C@H](O)[C@H](O)[C@H](O)COP(=O)(O)O)c2cc1C [FMN, flavin mononucleotide] | – | 290 ± 100
Cc1cc2nc3c(=O)[nH]c(=O)nc-3n(C[C@H](O)[C@H](O)[C@H](O)CO)c2cc1C [RF, riboflavin] | – | 410 ± 60
